In brackets after ≈: the same amount, converted by molar mass. Entries after “also recorded” stand apart in the source; their conditions may differ.
Columns and labels:
[1] = tested on: G. duodenalis trophozoites; test: Anti-Giardia activity assay (MTT viability); assay type: cell-based; details: pure compounds
Description: Anti-Giardia (AG) activity assays were conducted on G. duodenalis trophozoites from the ATCC® 30957 strain (assemblage A), using flat-bottom microwell plates in quadruplicate. […] Incubation was carried out for 24 h at 37 °C. EOs and pure compounds were solved in DMSO (Sigma, Madrid, Spain) (<1% final concentration). […] Trophozoites/promastigotes viability was assessed using the modified MTT colorimetric assay, as described previously in the literature, with results further validated by microscopic examination. The plate was analyzed in a spectrophotometer at a wavelength of 570 nm. The percentage of antiparasitic activity was calculated as growth inhibition, using the following formula: % AT = 100 - [(Ap - Ab) ÷ (Ac - Ab)] × 100, where Ap is the absorbance of the tested product, Ab the absorbance of the blank and Ac the absorbance of the control wells (culture without treatment). […] Metronidazole (Acros Organics, Madrid, Spain) served as a reference compound for anti-Giardia activity and Anti-Trichomonas activity and amphotericin B for anti-Leishmania activity. Data was analyzed using STATGRAPHICS Centurion XIX ([…].com) (Statgraphics Technologies, Inc., The Plains, VA, USA). The mammalian cells and trophozoites viability were tested with each compound in a dose-response experiment to calculate their relative potency (CC50 or IC50 value, respectively).

[2] = tested on: T. gallinae trophozoites; test: Morphological evaluation by light microscopy (Diff-Quik), T. gallinae; assay type: cell-based, Trichomonas gallinae; details: germacrone 100 µg/mL, metronidazole 10 µg/mL; 0.5 and 48 h; control DMSO 1%
Description: At each time point, quadruplicates were assigned per condition: growth control, germacrone, and the corresponding positive control (metronidazole or amphotericin B). For microscopy, quadruplicate wells corresponding to the same condition/time point were pooled prior to centrifugation to obtain sufficient biomass and a representative pellet for smear preparation. Pooled samples per condition/time point were centrifuged, resuspended in FBS and spread onto microscope slides. Once dried, samples were fixed and stained with Diff-Quik (Medion Diagnostic AG, […], Switzerland) following the manufacturer's instructions. Additionally, three wells per condition (triplicates) were used for the MTT assay, with absorbance measured by spectrophotometry after 48 h. Morphological changes were analyzed using light microscopy. Experiments were performed as independent biological replicates on different plates, and one Diff-Quik stained smear was obtained per condition and time point per biological replicate. For morphometric analysis, a total of 30 trophozoites per condition and time point were measured across the independent biological replicates and were selected by consecutive sampling during a predefined serpentine (zig-zag) scan across the preparation. Up to two eligible trophozoites per field (intact, well-focused and non-overlapping) were measured in sequential fields until n = 30 was reached, avoiding subjective selection of “representative” cells. Overlapping, partially visible, out-of-focus, edge-of-field, or debris-obscured trophozoites were excluded a priori. Trophozoites were photographed using a researcher's mobile phone mounted to the microscope ocular. Calibration was performed at the same magnification using a stage micrometre and applied in ImageJ v. 1.54d. One Diff-Quik stained smear was obtained per condition/time point per biological replicate Cell length, cell width, cell surface, nuclear length, nuclear width, axoneme (only Giardia), and length of axostyle (only T. gallinae) were measured with ImageJ software, and the data were recorded in an Excel database for statistical analysis. The Shapiro-Wilk test was used to assess the normality of the morphological variables. When data followed a normal distribution, Student's t-test was applied; otherwise, non-parametric tests, such as the Mann-Whitney U test, was used. Values of p < 0.05 were considered significant. For the morphological analysis, the mean, standard deviation, median, and interquartile range were calculated using SPSS version 20 (IBM Corp., Armonk, NY, USA).

[3] = Cytotoxicity of pure compounds on Vero cells (MTT); assay type: cell-based; details: African green monkey
Description: African green monkey kidney cells (Vero cells) were maintained in Dulbecco’s modified Eagle’s minimal essential medium (DMEM) (Thermo Fisher Scientific, Waltham, MA, USA) supplemented with 10% FBS and 1% Pen-Strep at 37 °C under a humidified atmosphere of 5% CO2/95% air.
Cells seeded in 96-well flat-bottom microplates with 100 μL medium per well (initial densities 10^4 cells per well) were exposed for 48 h to serial dilutions (100, 75, 50, 25, 10 and 1 µg/mL) of the tested compounds in DMSO (<1% final concentration). Cell viability was analyzed by the MTT colorimetric assay method, and the purple-colored formazan precipitate was dissolved with 100 μL of DMSO [23].
Data was analyzed using STATGRAPHICS Centurion XIX (https://www.statgraphics.com) (Statgraphics Technologies, Inc., The Plains, VA, USA). The mammalian cells and trophozoites viability were tested with each compound in a dose–response experiment to calculate their relative potency (CC50 or IC50 value, respectively). IC50 (μg/mL) expresses the dose of EOs, extracts or pure compounds needed to produce 50% mortality of trophozoites, while CC50 (μg/mL) expresses the dose of compounds necessary to produce 50% mortality of Vero cells.

[4] = tested on: G. duodenalis trophozoites; test: Morphological evaluation by light microscopy (Diff-Quik), G. duodenalis; assay type: cell-based, Giardia duodenalis; details: germacrone 100 µg/mL, metronidazole 100 µg/mL; 0.5 and 48 h; control DMSO 1%
Description: Each well contained 435 μL of culture medium and 15 μL of the test or control compounds at the above-mentioned concentrations. The chamber included: two wells for growth control (0.5 h, 48 h), two for germacrone (0.5 h, 48 h), and two for metronidazole (0.5 h, 48 h). Incubation was performed at 37 °C. At each time point, the medium was removed, wells were dried, fixed, and stained with Diff-Quik. Morphological changes were analyzed using light microscopy. Experiments were performed as independent biological replicates on different plates, and one Diff-Quik stained smear was obtained per condition and time point per biological replicate. For morphometric analysis, a total of 30 trophozoites per condition and time point were measured across the independent biological replicates and were selected by consecutive sampling during a predefined serpentine (zig-zag) scan across the preparation. Up to two eligible trophozoites per field (intact, well-focused and non-overlapping) were measured in sequential fields until n = 30 was reached, avoiding subjective selection of “representative” cells. Overlapping, partially visible, out-of-focus, edge-of-field, or debris-obscured trophozoites were excluded a priori. Trophozoites were photographed using a researcher's mobile phone mounted to the microscope ocular. Calibration was performed at the same magnification using a stage micrometre and applied in ImageJ v. 1.54d. One Diff-Quik stained smear was obtained per condition/time point per biological replicate Cell length, cell width, cell surface, nuclear length, nuclear width, axoneme (only Giardia), and length of axostyle (only T. gallinae) were measured with ImageJ software, and the data were recorded in an Excel database for statistical analysis. The Shapiro-Wilk test was used to assess the normality of the morphological variables. When data followed a normal distribution, Student's t-test was applied; otherwise, non-parametric tests, such as the Mann-Whitney U test, was used. Values of p < 0.05 were considered significant. For the morphological analysis, the mean, standard deviation, median, and interquartile range were calculated using SPSS version 20 (IBM Corp., Armonk, NY, USA).

[5] = tested on: T. gallinae trophozoites; set-up: method as in PMID 36157195; details: cited from earlier work

SMILES: Cc1ncc([N+](=O)[O-])n1CCO [Met, metronidazole, reference compound]
- IC50 [1]: 4.4 µg/mL (≈ 25.7 µM)
- axostyle length vs control [2]: decreased at 0.5 h; also recorded: undetectable in most metronidazole-treated trophozoites by 48 h
- cell length vs control [2]: initial increase at 0.5 h, followed by a reduction at 48 h
- cell surface area vs control [2]: significant reduction only at 48 h
- nuclear length vs control [2]: decreased with metronidazole
- nuclear width vs control [2]: diminished at 0.5 h; also recorded: further decreased
- CC50 at 48 h [3]: > 100 µg/mL
- axoneme length vs control [4]: decreased at 0.5 h; also recorded: continued to decrease
- cell length vs control [4]: significant reductions at 30 min
- cell surface area vs control [4]: reduction in cell surface area relative to the control within 0.5 h
- cell width vs control [4]: decrease in cell width at 0.5 h
- nuclear length (left and right) vs control [4]: No effects
- nuclear width vs control [4]: reduction at 0.5 h, followed by an increase at 48 h
- T. gallinae IC50 [5]: 1.0 (0.8–1.1) [23] µg/mL

Reference: publication PMC12841663, “Antiprotozoal Potential of Cultivated Geranium macrorrhizum Against Giardia duodenalis, Trichomonas gallinae and Leishmania infantum” (International Journal of Molecular Sciences, 2026)
